Measured values as given in patent publication USH1992H, “Metalloproteinase inhibitors, pharmaceutical compositions containing them, and their pharmaceutical uses” (Agouron Pharmaceuticals, Inc., priority 1999, dated 2001).

Experiments:
Format in all cases: biochemical
[1] = molecular target: T1, human stromelysin-1 (Strom) (Homo sapiens, UniProt P08254); assay: Inhibition of stromelysin (Strom) - fluorogenic MCA peptide substrate hydrolysis; conditions: catalytic domain; Ki,app; MCA peptide substrate 10 μM, pH 7.5, 37° C., 2% DMSO; enzyme 1.5 nM
T1 construct: The catalytic domain of human stromelysin (Sln) was obtained by expression and purification of a C-terminally truncated prostromelysin-1; made in house; host or cells: E. coli BL21
T1 sequence (P08254 100-272 limits assumed): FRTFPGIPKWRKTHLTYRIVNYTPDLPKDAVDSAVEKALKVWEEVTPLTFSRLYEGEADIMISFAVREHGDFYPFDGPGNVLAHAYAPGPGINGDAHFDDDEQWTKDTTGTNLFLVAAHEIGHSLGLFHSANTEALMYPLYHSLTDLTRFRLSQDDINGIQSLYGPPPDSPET
Description: The catalytic domain of human stromelysin (Sln) was obtained by expression and purification of a C-terminally truncated prostromelysin-1 from E. coli host BL21 (see Marcy et al. Biochem., 1991, 30, 6476, which article is entirely incorporated herein by reference). The subsequent activation of the mature form (Sln) was completed with 2mM APMA for 1 hour at 37° C., followed by separation using a sizing column.
(§1) Assays were performed in assay buffer (50 mM Tricine pH 7.5, 200 mM sodium chloride, 10 mM calcium chloride, 0.5 mM zinc acetate containing 2% dimethyl sulfoxide (DMSO)), once the substrate and inhibitor were diluted into it. Stock solutions of inhibitors were prepared in 100 % DMSO. Stock solutions of the substrate were prepared in 100 % DMSO at a concentration of 6 mM.
(§2) The assay method was based on the hydrolysis of MCA-Pro-Leu-Gly-Leu-DPA-Ala-Arg-NH2 (American Peptide Co.) at 37° C. (see Knight, C. G. et al., FEBS, 1992, 296, 263-266, which article is entirely incorporated herein by reference). The fluorescence changes were monitored with a Perkin-Elmer LS-50B fluorimeter using an excitation wavelength of 328 nm and an emission wavelength of 393 nm. The substrate concentration used in the assays was 10 μM. The inhibitor was diluted into the assays from a solution in 100 % DMSO, and controls substituted an equal volume of DMSO so that the final DMSO concentration from inhibitor and substrate dilution in all assays was 2%. […] Proper determination of steady-state rates of substrate cleavage required assay lengths of 60 minutes to allow for complete equilibration of the enzyme-inhibitor complex.
(§3) The Km for the MCA peptide substrate with the matrix metalloproteinases is quite high and exceeds its solubility under assay conditions. Consequently, the apparent Ki (Ki, app) was determined to describe the strength of inhibition. However, in this case, Ki,app would be essentially equal to Ki since [S]<<Km. For the determination of Ki,app, the concentration of the inhibitor was varied at a constant and low concentration of substrate, and the steady-state rates of fluorescence change were determined. In most cases, absorptive quench due to the presence of ligand was not observed. For slow-binding inhibitors, onset of inhibition curves were collected for at least 45 minutes so that equilibrium was established. Steady-state rates of fluorescence change were obtained by fitting a curve to an equation for a single exponential decay containing a linear phase. The fitted value of the linear phase was taken as the steady-state rate. The steady-state rates were fitted to the Michaelis equation describing competitive inhibition by non-linear methods. Data resulting from tight-binding inhibition was analyzed, and Ki,app determined by fitting the data to the tight-binding equation of Morrison (Biochem. Biophys. Acta, vol. 185, pp. 269-286 (1969), which article is entirely incorporated herein by reference) by non-linear methods.
(§4) All Ki values are in nM units.

[2] = molecular target: T2, human collagenase-1 (HFC) (Homo sapiens, UniProt P03956); assay: Inhibition of collagenase-1 (HFC) - fluorogenic MCA peptide substrate hydrolysis; conditions: catalytic domain; Ki,app; MCA peptide substrate 10 μM, pH 7.5, 37° C., 2% DMSO
T2 construct: the fibroblast collagenase-1 catalytic domain (HFC) was released; ubiquitin (fusion) (cleaved yes); made in house; host or cells: E. coli
T2 sequence (P03956 100-269 limits assumed): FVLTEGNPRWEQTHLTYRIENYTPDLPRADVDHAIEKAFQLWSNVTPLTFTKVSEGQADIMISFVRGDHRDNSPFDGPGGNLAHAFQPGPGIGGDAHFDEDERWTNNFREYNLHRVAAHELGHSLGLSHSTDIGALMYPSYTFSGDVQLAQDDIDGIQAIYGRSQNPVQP
Excerpt: The catalytic domain of human collagenase-1 was expressed as a fusion protein with ubiquitin in E. coli (see Gehring, E. R., J. Biol. Chem., 1995, 270, 22507, which article is entirely incorporated herein by reference). After purification of the fusion protein, the fibroblast collagenase-1 catalytic domain (HFC) was released either by treatment with purified, active stromelysin-1 (1:50 w/w ratio), which generated nearly 100% N-terminal Phe1, or by autoprocessing the concentrated collagenase-1 fusion and then incubating at 37° C. for 1 hour. Final purification was completed using zinc chelate chromatography.
as §1, §2, §3, §4

[3] = molecular target: human collagenase-3 (Coll-3); assay: Inhibition of collagenase-3 (Coll-3) - fluorogenic MCA peptide substrate hydrolysis; conditions: catalytic domain; Ki,app; MCA peptide substrate 10 μM, pH 7.5, 37° C., 2% DMSO
Description: The propeptide and catalytic domain of human collagenase-3 (Coll3) was expressed in E. coli as an N-terminal fusion protein with ubiquitin. After purification of the fusion from inclusion bodies, the catalytic domain was liberated by treatment with 2mM APMA at room temperature overnight. Final purification was completed using copper chelate chromatography.
as §1, §2, §3, §4

human matrilysin (Matr) = molecular target: T3, human matrilysin (Matr) (Homo sapiens, UniProt P09237); assay: Inhibition of matrilysin (Matr) - fluorogenic MCA peptide substrate hydrolysis; conditions: catalytic domain; Ki,app; MCA peptide substrate 10 μM, pH 7.5, 37° C., 2% DMSO
T3 construct: the catalytic domain was liberated by treatment with 2mM APMA; ubiquitin (fusion) (cleaved yes); made in house; host or cells: E. coli
T3 sequence (P09237 95-267): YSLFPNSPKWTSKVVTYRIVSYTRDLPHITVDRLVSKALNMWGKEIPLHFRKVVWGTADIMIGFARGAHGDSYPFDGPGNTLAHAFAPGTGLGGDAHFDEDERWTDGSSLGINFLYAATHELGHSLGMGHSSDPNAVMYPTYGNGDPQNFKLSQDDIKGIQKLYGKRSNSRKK
Description: Human matrilysin (Matr) was expressed in E. coli as a fusion protein with ubiquitin. After purification of the matrilysin/ubiquitin fusion from inclusion bodies, the catalytic domain was liberated by treatment with 2mM APMA at 37 ° C. for 2 hours. Final purification was complete using copper chelate chromatography.
as §1, §2, §3, §4

[4] = molecular target: human gelatinase A (Gel A); assay: Inhibition of gelatinase A (Gel A) - fluorogenic MCA peptide substrate hydrolysis; conditions: catalytic and fibronectin-like portion; Ki,app; MCA peptide substrate 10 μM, pH 7.5, 37° C., 2% DMSO; enzyme 60 pM
Description: The catalytic and fibronectin-like portion of human progelatinase A (GelA) was expressed as a fusion protein with ubiquitin in E. Coli. Assays were carried out on autocatalytically activated material.
as §1, §2, §3, §4

| Compound | Ki [1] [nM] | Ki [2] [nM] | Ki [3] [nM] | Ki (human matrilysin (Matr)) [nM] | Ki [4] [nM] |
| --- | --- | --- | --- | --- | --- |
| CC(C)[C@H](C(=O)NO)N(Cc1cccnc1)S(=O)(=O)c1ccc(Oc2ccc(Br)cc2)cc1 [Example 3(a), 2(R)-2-[4-(4-Bromophenoxy)benzenesulfonyl][(pyridin-3-yl)methyl]amino-N-hydroxy-3-methylbutanamide] | 0.35 | 7.6 | 0.02 |  |  |
| CC(C)[C@H](C(=O)NO)N(Cc1cccnc1)S(=O)(=O)c1ccc(Oc2ccccc2)cc1 [Example 3(b), 2(R)-N-hydroxy-2-[(4-phenoxy)benzenesulfonyl][(pyridin-3-yl)methyl]amino-3-methylbutanamide] | 1.2 | 6 | 0.05 |  |  |
| CCOP(=O)(CN(CC(=O)O)S(=O)(=O)c1ccc(Oc2ccccc2)cc1)OCC [Example 4(a), 2(R)-2-[(diethylphosphonomethyl)(4-phenoxybenzenesulfonyl)-amino]-acetic acid] | 27000 |  | 740 |  |  |
| CCOP(=O)(CN(CC(=O)NO)S(=O)(=O)c1ccc(Oc2ccccc2)cc1)OCC [Example 4, 2(R)-2-[(diethylphosphonomethyl)(4-phenoxybenzenesulfonyl)amino]-N-hydroxyacetamide] | 0.23 | 27 | 0.09 |  |  |
| O=C(NO)[C@H]1CCCCN1S(=O)(=O)c1ccc(Oc2ccc(Br)cc2)cc1 [Example 5, 2(R)-1-[4-(4-Bromophenoxy)benzenesulfonyl]-N-hydroxypiperidine-2-carboxamide] | 0.04 | 15 | 0.014 | 44 | 0.018 |

Second part, the compound after the results:

| Ki [1] [nM] | Ki [2] [nM] | Ki [3] [nM] | Ki (human matrilysin (Matr)) [nM] | Ki [4] [nM] | Compound |
| --- | --- | --- | --- | --- | --- |
| 16000 | 481000 | 448 | 540000 | 192 | O=C(O)[C@H]1CCCCN1S(=O)(=O)c1ccc(Oc2ccc(Br)cc2)cc1 [Example 5(a)] |
| 2190 | 125000 | 212 | 72000 | 64 | O=C(O)[C@H]1CCCCN1S(=O)(=O)c1ccc(Oc2ccc(-c3ccccc3)cc2)cc1 [Example 6(a)] |
| 0.06 | 8.8 |  | 6.7 | 0.014 | O=C(NO)[C@H]1CCCCN1S(=O)(=O)c1ccc(Oc2ccc(-c3ccccc3)cc2)cc1 [Example 6, 2(R)-1-[4-(Biphenyl-4-yl)oxybenzenesulfonyl]-N-hydroxy-piperidine-2-carboxamide] |
| 0.07 | 6.6 |  | 55 |  | O=C(NO)[C@H]1CCCCN1S(=O)(=O)c1ccc(Oc2ccccc2)cc1 [Example 7, 2(R)-1-(4-Phenoxy-benzenesulfonyl)-N-hydroxy-piperidine-2-carboxamide] |
